Measurements published in ChEMBL document CHEMBL1201862, “PubChem BioAssay data set” (2004).
Activity calls are given as the source filed them.

Experiments:
[1] = A549 cell cytotoxicity, dose response, cytotoxicity control, plate reader, cherry-pick, antagonist series (AID 743412); assay type: functional, cell-based
[2] = molecular target: T1, Microphthalmia-associated transcription factor (Homo sapiens, UniProt O75030); experiment: reducers of TRPM1 reporter luminescence, concentration series – cell-based, SK-MEL-5, cherry-picked, set 3, MITF inhibitor project, dose response (AID 493073); assay type: functional;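 note: SK-MEL-5 melanoma cells with luciferase driven by the MITF target TRPM1 promoter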
T1 sequence (O75030 whole entry): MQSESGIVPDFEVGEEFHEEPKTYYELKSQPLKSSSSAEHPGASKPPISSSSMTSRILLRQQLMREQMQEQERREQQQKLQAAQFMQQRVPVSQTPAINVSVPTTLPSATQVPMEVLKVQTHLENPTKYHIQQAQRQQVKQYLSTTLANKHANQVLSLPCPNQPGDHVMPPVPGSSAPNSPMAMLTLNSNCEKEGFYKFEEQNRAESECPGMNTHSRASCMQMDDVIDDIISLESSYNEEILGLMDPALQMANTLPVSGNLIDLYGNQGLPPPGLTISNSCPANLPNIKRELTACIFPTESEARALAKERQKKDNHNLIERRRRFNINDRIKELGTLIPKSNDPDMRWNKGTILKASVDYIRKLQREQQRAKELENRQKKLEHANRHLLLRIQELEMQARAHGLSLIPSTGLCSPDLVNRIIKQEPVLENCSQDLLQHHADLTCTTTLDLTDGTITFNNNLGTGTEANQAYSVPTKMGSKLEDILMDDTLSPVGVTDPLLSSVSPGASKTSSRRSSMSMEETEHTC

[3] = viability loss in HEK293 cells – cell-based, plate reader, cherry-picked samples, cytotoxicity control, dose response (AID 743446); assay type: functional
HEK293 [4] = experiment: cells; assay type: functional, cell-based; conditions: Homo sapiens
[5] = molecular target: T2, Heat shock factor protein 1 (Mus musculus, UniProt P38532); experiment: decrease of HSF1-responsive luciferase luminescence – cell-based, NIH3T3, dose retest, confirmation (AID 2382); assay type: functional;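 note: NIH3T3 fibroblasts with HSF1-driven luciferase reporter stressed by proteasome inhibitor MG132; luminescence from HSF1-driven luciferase expression after 8 hours of MG132 stress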
T2 sequence (P38532 whole entry): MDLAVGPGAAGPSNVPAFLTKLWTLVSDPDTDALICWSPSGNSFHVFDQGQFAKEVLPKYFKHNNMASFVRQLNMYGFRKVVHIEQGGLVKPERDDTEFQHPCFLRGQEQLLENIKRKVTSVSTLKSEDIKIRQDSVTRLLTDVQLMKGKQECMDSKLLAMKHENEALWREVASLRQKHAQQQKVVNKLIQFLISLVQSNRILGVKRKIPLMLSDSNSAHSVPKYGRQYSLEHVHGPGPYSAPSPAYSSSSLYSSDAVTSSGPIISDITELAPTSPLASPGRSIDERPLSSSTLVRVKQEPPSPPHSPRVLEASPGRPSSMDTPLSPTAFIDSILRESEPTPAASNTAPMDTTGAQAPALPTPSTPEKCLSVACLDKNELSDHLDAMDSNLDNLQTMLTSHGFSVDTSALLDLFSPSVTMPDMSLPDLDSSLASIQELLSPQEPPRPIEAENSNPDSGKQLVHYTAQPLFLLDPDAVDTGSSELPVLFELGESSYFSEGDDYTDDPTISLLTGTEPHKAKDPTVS

HEK293 [6] = experiment: inhibition of NOD1-driven NF-kB reporter – cell-based, luminescence, uHTS, primary screen (AID 1578); assay type: functional; conditions: Homo sapiens
[7] = molecular target: Photoreceptor-specific nuclear receptor (Homo sapiens, UniProt Q9Y5X4); assay type: functional, cell-based;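 note: CHO-S cells with Gal4-NCOR and VP16-NR2E3 two-hybrid luciferase reporter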
HEK293 [8] = experiment: cells; assay type: functional, cell-based; conditions: Homo sapiens; remark: listed apart in the source
[9] = blockade of melanocortin 4 receptor signaling – cell-based, plate reader, cherry pick, counter-screen for LGR2 antagonist project, dose response (AID 743444); assay type: functional;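 note: transfected HEK 293 cells stimulated with alpha-MSH peptide; potency of inhibitors of the alpha-MSH evoked signal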
HEK293 [10] = experiment: NOD2 signaling inhibitors in MDP-stimulated cells, cell-based, uHTS, luminescence (AID 2001); assay type: functional; conditions: Homo sapiens
[11] = molecular target: Nucleotide-binding oligomerization domain-containing protein 2 (Homo sapiens, UniProt Q9HC29); experiment: inhibition of NOD2-driven NF-kB reporter – cell-based, luminescence, uHTS, HEK293 (AID 1566); assay type: functional
[12] = toxicity toward HepG2 liver cells – cell-based, plate reader, cherry-pick, antagonist series, cytotoxicity control, dose response (AID 743416); assay type: functional
[13] = blockers of bursicon-stimulated LGR2 cAMP reporter – cell-based, HEK293, CRE-luciferase reporter, cherry pick, set 2, dose response (AID 743343); assay type: functional;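 note: transfected cells were stimulated with diluted bursicon conditioned medium after compound addition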
HEK293 [14] = experiment: cells; assay type: functional, cell-based; conditions: Homo sapiens; remark: listed apart in the source
Hexokinase = Hexokinase (Trypanosoma brucei, UniProt Q38C41); experiment: Confirmation assay for inhibitors of Trypanosoma brucei hexokinase 1-Analogue-first series. [Related pubchem assays (depositor defined):AID1430, AID1632, AID2516, AID2560, AID2579, AID2600, AID449725, AID492951]; assay type: functional
[15] = molecular target: T3, Sentrin-specific protease 8 (Homo sapiens, UniProt Q96LD8); assay type: functional;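 note: luminescence read-out of SENP8 inhibition, dose-response confirmation following an ultra-high-throughput screen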
T3 sequence (Q96LD8 whole entry): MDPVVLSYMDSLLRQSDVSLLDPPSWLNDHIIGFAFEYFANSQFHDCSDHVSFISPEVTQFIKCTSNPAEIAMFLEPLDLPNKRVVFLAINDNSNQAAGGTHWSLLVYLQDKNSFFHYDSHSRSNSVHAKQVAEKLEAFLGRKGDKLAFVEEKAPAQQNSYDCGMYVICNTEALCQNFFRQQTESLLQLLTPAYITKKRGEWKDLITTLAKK

Caspase-3 = molecular target: T4, Caspase-3 (Homo sapiens, UniProt P42574); assay type: functional;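 note: Dose-response selectivity test against caspase-3 for candidate inhibitors of sentrin-specific proteases (SENPs)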
T4 sequence (P42574 whole entry): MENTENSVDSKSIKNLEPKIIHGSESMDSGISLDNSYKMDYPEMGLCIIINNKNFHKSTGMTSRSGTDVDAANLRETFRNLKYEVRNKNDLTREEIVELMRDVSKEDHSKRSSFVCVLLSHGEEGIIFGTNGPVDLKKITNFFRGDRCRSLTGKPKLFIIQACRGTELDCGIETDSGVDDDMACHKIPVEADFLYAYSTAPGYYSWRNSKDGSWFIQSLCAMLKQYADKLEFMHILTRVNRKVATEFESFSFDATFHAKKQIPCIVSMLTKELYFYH

[16] = molecular target: T5, Sentrin-specific protease 6 (Homo sapiens, UniProt Q9GZR1); assay type: functional;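 note: Luminescence-based dose-response confirmatory assay of SENP6 inhibition, following up an ultra-high-throughput screen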
T5 sequence (Q9GZR1 whole entry): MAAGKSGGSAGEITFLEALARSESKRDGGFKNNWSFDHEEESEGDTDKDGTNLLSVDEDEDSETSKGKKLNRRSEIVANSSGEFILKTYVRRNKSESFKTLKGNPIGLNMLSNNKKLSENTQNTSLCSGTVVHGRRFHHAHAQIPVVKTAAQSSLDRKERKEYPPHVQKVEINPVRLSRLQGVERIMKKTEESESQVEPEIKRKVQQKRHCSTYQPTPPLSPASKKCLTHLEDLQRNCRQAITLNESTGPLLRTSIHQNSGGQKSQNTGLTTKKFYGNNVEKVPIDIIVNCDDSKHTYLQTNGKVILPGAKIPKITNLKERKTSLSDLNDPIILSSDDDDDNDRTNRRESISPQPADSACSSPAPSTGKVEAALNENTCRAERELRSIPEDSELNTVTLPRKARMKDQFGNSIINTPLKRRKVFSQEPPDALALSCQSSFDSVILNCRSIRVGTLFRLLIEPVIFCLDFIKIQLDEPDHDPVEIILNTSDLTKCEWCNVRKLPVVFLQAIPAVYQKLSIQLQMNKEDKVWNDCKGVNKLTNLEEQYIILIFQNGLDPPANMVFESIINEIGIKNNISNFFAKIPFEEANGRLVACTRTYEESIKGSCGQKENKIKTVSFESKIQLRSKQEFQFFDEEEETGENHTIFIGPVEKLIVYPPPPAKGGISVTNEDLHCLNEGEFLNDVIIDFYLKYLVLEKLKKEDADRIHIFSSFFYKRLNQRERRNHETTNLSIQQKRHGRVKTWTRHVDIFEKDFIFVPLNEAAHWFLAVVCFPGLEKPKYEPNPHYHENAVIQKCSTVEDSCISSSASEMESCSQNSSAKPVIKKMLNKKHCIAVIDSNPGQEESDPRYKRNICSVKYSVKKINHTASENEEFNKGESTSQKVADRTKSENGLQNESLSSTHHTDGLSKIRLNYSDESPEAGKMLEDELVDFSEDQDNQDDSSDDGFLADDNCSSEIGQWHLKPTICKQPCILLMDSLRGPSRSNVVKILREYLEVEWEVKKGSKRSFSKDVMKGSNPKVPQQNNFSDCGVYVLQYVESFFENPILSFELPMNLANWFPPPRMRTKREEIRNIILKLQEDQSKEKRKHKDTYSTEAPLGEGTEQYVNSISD

[17] = molecular target: T6, Sentrin-specific protease 7 (Homo sapiens, UniProt Q9BQF6); assay type: functional;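 note: Luminescence-based dose-response confirmation of ultra-high-throughput screening hits, measuring inhibition of SENP7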
T6 sequence (Q9BQF6 whole entry): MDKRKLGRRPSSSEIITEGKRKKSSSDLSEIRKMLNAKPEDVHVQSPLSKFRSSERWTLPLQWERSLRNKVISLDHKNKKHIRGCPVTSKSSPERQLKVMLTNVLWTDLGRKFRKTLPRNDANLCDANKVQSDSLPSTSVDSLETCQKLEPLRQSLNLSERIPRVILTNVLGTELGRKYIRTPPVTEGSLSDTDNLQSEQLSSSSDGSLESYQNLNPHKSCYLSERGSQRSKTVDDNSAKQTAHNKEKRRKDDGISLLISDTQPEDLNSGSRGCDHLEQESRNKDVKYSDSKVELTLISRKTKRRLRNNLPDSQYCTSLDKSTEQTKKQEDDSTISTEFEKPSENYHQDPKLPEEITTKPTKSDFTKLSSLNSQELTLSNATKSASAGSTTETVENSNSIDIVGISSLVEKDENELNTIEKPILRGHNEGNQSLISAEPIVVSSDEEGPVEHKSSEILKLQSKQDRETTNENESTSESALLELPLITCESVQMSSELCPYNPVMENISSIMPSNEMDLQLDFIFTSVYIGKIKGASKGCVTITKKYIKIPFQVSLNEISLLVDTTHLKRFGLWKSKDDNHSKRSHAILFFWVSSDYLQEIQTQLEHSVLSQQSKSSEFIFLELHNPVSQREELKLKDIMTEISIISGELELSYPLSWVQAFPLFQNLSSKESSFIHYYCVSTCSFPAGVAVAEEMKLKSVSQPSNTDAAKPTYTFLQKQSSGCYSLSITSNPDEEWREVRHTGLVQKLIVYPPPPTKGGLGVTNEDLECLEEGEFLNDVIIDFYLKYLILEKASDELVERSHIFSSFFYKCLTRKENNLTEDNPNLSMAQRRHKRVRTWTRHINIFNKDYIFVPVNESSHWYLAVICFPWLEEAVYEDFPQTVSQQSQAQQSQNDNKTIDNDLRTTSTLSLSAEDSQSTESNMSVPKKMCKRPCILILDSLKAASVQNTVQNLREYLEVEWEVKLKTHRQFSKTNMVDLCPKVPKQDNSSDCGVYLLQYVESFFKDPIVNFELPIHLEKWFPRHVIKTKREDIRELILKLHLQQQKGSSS

Sequence of Hexokinase (Q38C41 whole entry): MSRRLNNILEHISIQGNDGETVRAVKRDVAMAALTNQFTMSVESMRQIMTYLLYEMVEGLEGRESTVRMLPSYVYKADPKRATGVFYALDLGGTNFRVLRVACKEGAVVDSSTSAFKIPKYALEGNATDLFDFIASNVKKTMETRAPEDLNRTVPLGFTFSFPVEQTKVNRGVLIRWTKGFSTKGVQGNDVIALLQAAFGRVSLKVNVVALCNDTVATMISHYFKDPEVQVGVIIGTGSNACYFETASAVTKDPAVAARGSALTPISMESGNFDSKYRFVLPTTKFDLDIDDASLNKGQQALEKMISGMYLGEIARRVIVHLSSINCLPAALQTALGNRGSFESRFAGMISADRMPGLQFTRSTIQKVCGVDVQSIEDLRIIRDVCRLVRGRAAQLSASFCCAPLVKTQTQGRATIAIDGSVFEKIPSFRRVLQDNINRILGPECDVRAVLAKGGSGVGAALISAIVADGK
Sequence of Nucleotide-binding oligomerization domain-containing protein 2 (Q9HC29 whole entry, the tested form may be a part): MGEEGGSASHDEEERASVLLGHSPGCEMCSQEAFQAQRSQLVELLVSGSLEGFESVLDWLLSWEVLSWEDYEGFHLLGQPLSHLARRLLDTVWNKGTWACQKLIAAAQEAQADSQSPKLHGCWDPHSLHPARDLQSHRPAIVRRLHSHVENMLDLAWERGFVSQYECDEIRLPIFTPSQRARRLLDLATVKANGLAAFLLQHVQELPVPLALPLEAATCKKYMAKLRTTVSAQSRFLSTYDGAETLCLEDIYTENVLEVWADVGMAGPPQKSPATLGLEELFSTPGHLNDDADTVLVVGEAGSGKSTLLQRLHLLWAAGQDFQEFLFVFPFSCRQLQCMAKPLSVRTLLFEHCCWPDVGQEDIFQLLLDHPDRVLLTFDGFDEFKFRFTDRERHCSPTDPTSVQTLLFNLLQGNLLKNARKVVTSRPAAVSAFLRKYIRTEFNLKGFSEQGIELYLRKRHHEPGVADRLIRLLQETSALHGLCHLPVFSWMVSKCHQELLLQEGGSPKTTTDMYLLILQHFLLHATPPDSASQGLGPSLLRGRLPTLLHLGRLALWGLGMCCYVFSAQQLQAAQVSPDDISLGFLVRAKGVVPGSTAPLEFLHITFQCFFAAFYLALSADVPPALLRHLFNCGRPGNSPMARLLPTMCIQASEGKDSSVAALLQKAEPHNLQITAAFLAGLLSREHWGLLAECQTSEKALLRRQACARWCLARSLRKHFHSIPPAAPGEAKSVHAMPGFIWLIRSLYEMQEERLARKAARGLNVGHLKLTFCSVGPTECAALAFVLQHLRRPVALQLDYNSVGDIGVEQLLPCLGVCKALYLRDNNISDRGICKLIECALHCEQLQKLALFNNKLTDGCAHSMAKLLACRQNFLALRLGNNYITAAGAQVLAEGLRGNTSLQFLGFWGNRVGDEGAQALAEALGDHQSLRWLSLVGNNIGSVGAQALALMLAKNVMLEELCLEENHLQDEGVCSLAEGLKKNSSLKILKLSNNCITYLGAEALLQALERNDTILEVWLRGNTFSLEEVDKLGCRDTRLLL
Sequence of Photoreceptor-specific nuclear receptor (Q9Y5X4 whole entry, the tested form may be a part): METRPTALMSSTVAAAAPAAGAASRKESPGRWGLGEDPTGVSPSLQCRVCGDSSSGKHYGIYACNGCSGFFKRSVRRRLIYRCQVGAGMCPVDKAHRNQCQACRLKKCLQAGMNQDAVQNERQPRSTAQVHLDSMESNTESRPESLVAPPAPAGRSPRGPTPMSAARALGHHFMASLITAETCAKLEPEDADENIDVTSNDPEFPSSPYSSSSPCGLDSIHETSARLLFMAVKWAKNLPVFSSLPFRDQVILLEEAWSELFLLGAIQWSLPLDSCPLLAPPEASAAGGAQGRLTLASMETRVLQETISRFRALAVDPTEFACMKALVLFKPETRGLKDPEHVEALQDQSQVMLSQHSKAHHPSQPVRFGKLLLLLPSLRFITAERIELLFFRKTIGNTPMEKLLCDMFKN

SMILES | AC50 [1] | AC50 [2] | AC50 [3] | IC50 (HEK293 [4]) | EC50 [5] | EC50 (HEK293 [6]) | IC50 [7] | IC50 (HEK293 [8]) | AC50 [9] | IC50 (HEK293 [10]) | EC50 [11] | AC50 [12] | AC50 [13] | IC50 (HEK293 [14]) | IC50 (Hexokinase) | IC50 [15] | IC50 (Caspase-3) | IC50 [16] | IC50 [17]
Cc1cc(C)c(C#N)c(SCc2nnc(-c3ccccc3)o2)n1 | > 52 µM (inactive) | 0.024 µM (active) | > 52 µM (inactive) | > 20 µM (inactive) | < 0.16 µM (active) | 10.5 µM (active) | 35.7 µM (inactive) | > 20 µM (inactive) | 0.321 µM (active) | 12.6 µM (inactive) | < 0.31 µM (inactive) | > 52 µM (inactive) | 0.281 µM (active) | 6.41 µM (active) |  |  |  |  | 
COc1ccc(C(=O)Nc2cc(F)cc(F)c2O)cc1 |  |  |  |  |  |  |  |  |  |  |  |  |  |  | > 25 µM (inactive) |  |  |  | 
COc1ccc(-c2cc3ccccc3[nH]2)cc1 |  |  |  |  |  |  |  |  |  |  |  |  |  |  | > 25 µM (inactive) | 45.2 µM (active) | 14.1 µM (active) | 34.5 µM (active) | 18.2 µM (active)
